Results as given in PMC8596589 (Chembiochem : a European journal of chemical biology, 2021).
Entries after “also recorded” stand apart in the source; their conditions may differ.

Columns and labels:
Dop [1] = molecular target: T1, Dop (Mycolicibacterium smegmatis, UniProt A0QZ49); assay: ATP competition assay / KM of ATP for Dop; type: biochemical, M. smegmatis
T1 sequence (A0QZ49 1-498): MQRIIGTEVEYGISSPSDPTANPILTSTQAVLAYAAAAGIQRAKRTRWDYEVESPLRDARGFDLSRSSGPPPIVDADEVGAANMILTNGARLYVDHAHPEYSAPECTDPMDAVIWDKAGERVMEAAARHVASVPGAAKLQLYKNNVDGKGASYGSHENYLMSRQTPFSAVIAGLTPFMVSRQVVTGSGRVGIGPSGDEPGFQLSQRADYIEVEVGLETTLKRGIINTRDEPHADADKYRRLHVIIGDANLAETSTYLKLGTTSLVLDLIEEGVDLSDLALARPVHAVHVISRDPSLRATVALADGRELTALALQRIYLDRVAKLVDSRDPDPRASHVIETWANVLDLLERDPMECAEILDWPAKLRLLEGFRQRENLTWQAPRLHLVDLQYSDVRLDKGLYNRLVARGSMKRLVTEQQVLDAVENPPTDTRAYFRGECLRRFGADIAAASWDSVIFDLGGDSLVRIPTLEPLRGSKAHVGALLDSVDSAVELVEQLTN

Dop [2] = molecular target: T1, Dop; assay: Jump-dilution assay; type: biochemical, M. smegmatis
Dop [3] = molecular target: T1, Dop; assay: biochemical; type: biochemical, M. smegmatis
Dop [4] = molecular target: T1, Dop; type: biochemical, M. smegmatis; conditions: 100 μM inhibitor; 10 nM Dop; 250 nM FabD-Pup; 30 min
PafA [5] = molecular target: T2, PafA (Mycobacterium tuberculosis, UniProt P9WNU7); type: biochemical, Mtb; conditions: 100 μM inhibitor; 50 nM PafA; 2 hours
T2 sequence (P9WNU7 1-452): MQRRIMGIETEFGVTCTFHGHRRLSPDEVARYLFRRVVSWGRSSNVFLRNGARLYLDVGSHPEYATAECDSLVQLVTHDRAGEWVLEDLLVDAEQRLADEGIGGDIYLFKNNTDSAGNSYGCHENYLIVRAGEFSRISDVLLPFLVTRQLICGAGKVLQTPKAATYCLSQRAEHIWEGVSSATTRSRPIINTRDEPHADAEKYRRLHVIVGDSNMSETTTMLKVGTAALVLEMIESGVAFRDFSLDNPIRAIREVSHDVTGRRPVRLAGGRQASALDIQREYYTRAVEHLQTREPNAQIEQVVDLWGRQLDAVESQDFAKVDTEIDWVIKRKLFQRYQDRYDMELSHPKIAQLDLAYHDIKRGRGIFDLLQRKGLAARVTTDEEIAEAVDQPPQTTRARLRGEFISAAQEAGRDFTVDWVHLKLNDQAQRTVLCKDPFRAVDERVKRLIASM

PafA [6] = molecular target: T2, PafA; type: biochemical, Mtb; conditions: 100 µM compound; 50 nM PafA; 2 hours
PafA [7] = molecular target: T2, PafA; type: biochemical, Mtb; conditions: 100 µM inhibitor; 250 nM FabD; 50 nM PafA; six hours

SMILES | Inhibition of depupylation of FabD-Pup by PafA (PafA [5]) | Inhibition of pupylation of FabD by PafA (ligase activity) (PafA [7]) | IC50 (Dop [3]) | also measured
Nc1ncnc2c1ncn2[C@@H]1O[C@H](COP(=O)(O)OP(=O)(O)OP(=O)(O)O)[C@@H](O)[C@H]1O [ATP] |  |  |  | Km (Dop [1]; read-out: KM of ATP for Dop, Michaelis-Menten curve of Dop vs. [ATP]): 320 ± 30 µM
COc1cc(/C=C(\C#N)C(=O)c2ccc(O)c(O)c2)cc(I)c1O [Compound 1, I-OMe-Tyrphostin AG538] | partly inhibited | partly inhibited |  | Dop activity after 100-fold dilution (jump-dilution) (Dop [2]): Complete restoration of Dop activity; IC50 at 10-fold increased Dop concentration (ratio test) (Dop [3]): 0.70 ± 0.03 μM; IC50 at routine Dop concentration (ratio test) (Dop [3]; 30 nM Dop): 0.26 ± 0.06 µM; Inhibition of depupylation of FabD-Pup by Dop (Dop [4]): incompletely inhibited; Change of IC50 with ATP concentration (Dop [1]; eight ATP concentrations, 0.1–6.4 mM): did not significantly increase; Inhibition of depupylation of Ino1-Pup by PafA (PafA [6]): partially inhibited
N#C/C(=C\c1ccc(O)c(O)c1)C(=O)c1ccc(O)c(O)c1 [Compound 2, Tyrphostin AG538] | completely inhibited; also recorded: fully inhibits; also recorded: efficiently inhibit | completely inhibited; also recorded: fully inhibits; also recorded: efficiently inhibit |  | Inhibition of depupylation of FabD-Pup by Dop (Dop [4]): failed to inhibit; also recorded: did not inhibit; also recorded: leaving Dop activity intact; Inhibition of depupylation of Ino1-Pup by PafA (PafA [6]): partially inhibited
COc1cc(/C=C(\C#N)C(=O)c2ccccc2)cc(I)c1O [Compound 5a] |  |  | 5.4 ± 0.5 µM | 
N#C/C(=C\c1ccccc1)C(=O)c1ccccc1 [Compound 5b] |  |  | > 100 µM | 
COc1cc(/C=C(\C#N)C(=O)c2ccc(O)c(O)c2)ccc1O [Compound 10a] |  |  | > 100 µM | 
COc1cc(/C=C(\C#N)C(=O)c2ccc(O)c(O)c2)cc([N+](=O)[O-])c1O [Compound 10b] |  |  | 4.1 ± 0.1 µM | 
COc1cc(/C=C(\C#N)C(=O)c2ccc(O)c(O)c2)cc(Br)c1O [Compound 10i] | partly inhibited | partly inhibited | 2.7 ± 0.2 µM | 
N#C/C(=C\c1cc(O)c(O)c(I)c1)C(=O)c1ccc(O)c(O)c1 [Compound 10k] | completely inhibited | completely inhibited | 0.29 ± 0.01 µM | Inhibition of depupylation of Ino1-Pup by PafA (PafA [6]): fully inhibited
COc1cc(/C=C/C(=O)c2ccccc2)cc(I)c1O [Compound 12] |  |  | 29 µM | Decrease in potency compared to 1 (Dop [3]; ratio of IC50 values vs compound 1): 60 fold
COc1cc(/C=C(\C#N)C(O)c2ccccc2)cc(I)c1O (stereo not shown) [Compound 13] |  |  | 57 µM | 
COc1cc(CC(C#N)C(O)c2ccccc2)cc(I)c1O (stereo not shown) [Compound 14] |  |  |  | Dop inhibition in the fluorogenic assay (in words) (Dop [3]; Pup(33–63)-Glu(AMC) substrate, highest conc. 100 µM): complete loss of activity
